According to patent publication EP0254179A2, “Tetrahydrobenzothiazoloquinolines, their preparation and use” (BOEHRINGER INGELHEIM KG, priority 1986, dated 1988):

Assays:
[1] = system: präsynaptischer Dopaminrezeptoren; test: Determination of dopamine utilisation after AMPT treatment (whole-brain dopamine by HPLC with electrochemical detection); format: in vivo, Ratten; settings: rats; 10 mg/kg s.c. at 0 and 2 hours; AMPT 250 mg/kg intraperitoneal; brains taken at 4 hours
Text: (§1) Im Vergleich zu der bekannten racemischen Verbindung 6-Methyl-9-amino-5,6,6a,7-tetrahydro-4H-benzo[de]thiazolo[4,-5-g] chinolin wurden daher beispielsweise die Verbindungen ((-)-Enantiomere) • a= 9-Amino-5,6,6a,7-tetrahydro-4H-benzo[de]thiazolo[4,5-g] chinolin • b= 6-Ethyl-9-amino-5,6,6a,7-tetrahydro-4H-benzo[de]-thiazolo[4,5-g]chinolin. • c= 6-Propyl-9-amino-5,6,6a,7-tetrahydro-4H-benzo[de]-thiazolo[4,5-g]chinolin • d= 6-Methyl-9-benzylamino-5,6,6a,7-tetrahydro-4H-benzo[de]-thiazolo[4,5-g]chinolin • e= 6-Ethyl-9-methylamino-5,6,6a,7-tetrahydro-4H-benzo[de]-thiazolo[4,5-g]chinolin • f= 6-Ethyl-9-dimethylamino-5,6,6a,7-tetrahydro-4H-benzo[de]thiazolo[4,5-g]chinolin. hinsichtlich ihrer Beeinflussung präsynaptischer Dopaminrezeptoren untersucht, wobei zunächst die Wirkung auf die exploratorische Aktivität von Mäusen getestet und anschließend die Beeinflussung der Dopaminutilisation und der Dopaminsynthese an Ratten wie folgt bestimmt wurden:
Die Dopaminutilisation wurde an Ratten gemessen. Bei Tieren, die mit α-Methylparatyrosin (AMPT) (250 mg/kg intraperitoneal) behandelt werden, fällt die Dopaminkonzentration im Gesamthirn mit fortschreitender Versuchsdauer ab. Durch Substanzen, die an Autorezeptoren wirken, kann der Dopaminabfall (im Vergleich zu mit Kochsalzlösung behandelten Kontrolltieren) vermindert werden.
Die Testsubstanzen werden zum Zeitpunkt 0 und 2 Stunden des Experiments - soweit nicht anders angegeben - zur Erstellung einer Dosis-Wirkungskurve mit 0,01 bis 10 mg/kg s.c. appliziert. Zum Zeitpunkt 4 Stunden des Experiments werden die Tiere getötet und die Gehirne der Dopaminbestimmung mittels Hochdruckflüssigkeitchromatographie mit elektrochemischer Detektion zugeführt. Bestimmt wird die durch die Testsubstanz bewirkte prozentuelle Steigerung der Dopaminutilisation nach AMPT-Behandlung.

[2] = system: präsynaptischer Dopaminrezeptoren; test: Inhibition of exploratory activity (light-beam interruptions by groups of 5 mice); format: in vivo, Mäusen; settings: 10 mg/kg subcutaneous, measured 1 hour after injection over 5 minutes, versus saline controls
Text: as §1
Die Aktititätsmessung erfolgte in Beobachtungskäfigen, die mit einer Infrarotlichtschranke versehen sind. Gemessen wird die Häufigkeit der Unterbrechung des Lichtstrahles durch eine Gruppe von 5 Mäusen innerhalb von 5 Minuten. Gruppen von jeweils 5 Tieren erhalten die zu untersuchende Substanz in einer Dosis von 10 mg/kg subkutan injiziert. 1 Stunde später werden die Tiere in die Beobachtungskäfige gebracht, wo sofort mit der Messung der exploratorischen Aktivität über 5 Minuten begonnen wird. Parallel bzw. alternierend zu Gruppen, die mit Testsubstanz behandelt wurden, werden kochsalzbehandelte Kontrollgruppen (o,9%ig; 0,1 ml/10 g Körpergewicht subkutan) untersucht.
Alle diejenigen Substanzen wurden in die weitere Versuchsreihe aufgenommen, die als Vorbedingung eine Hemmung der exploratorischen Aktivität gegenüber den Kontrolltieren von >50% aufwiesen, wie es beispielsweise für die oben näher bezeichneten Verbindungen a,b,c,d,e, und f nachzuweisen war.

SMILES	Prozentuale Steigerung der Dopaminutilisation [1] [%]	Hemmung der exploratorischen Aktivität gegenüber den Kontrolltieren [2] [%]
CCN1CCc2cccc3c2C1Cc1sc(N)nc1-3 (stereo not drawn) [b, 6-Ethyl-9-amino-5,6,6a,7-tetrahydro-4H-benzo[de]thiazolo[4,5-g]chinolin]	64	> 50
CCN1CCc2cccc3c2C1Cc1sc(NC)nc1-3 (stereo not drawn) [e, 6-Ethyl-9-methylamino-5,6,6a,7-tetrahydro-4H-benzo[de]thiazolo[4,5-g]chinolin]		> 50
CCCN1CCc2cccc3c2C1Cc1sc(N)nc1-3 (stereo not drawn) [c, 6-Propyl-9-amino-5,6,6a,7-tetrahydro-4H-benzo[de]thiazolo[4,5-g]chinolin]	112	> 50
CCN1CCc2cccc3c2C1Cc1sc(N(C)C)nc1-3 (stereo not drawn) [f, 6-Ethyl-9-dimethylamino-5,6,6a,7-tetrahydro-4H-benzo[de]thiazolo[4,5-g]chinolin]		> 50
Nc1nc2c(s1)CC1NCCc3cccc-2c31 (stereo not drawn) [a, 9-Amino-5,6,6a,7-tetrahydro-4H-benzo[de]thiazolo[4,5-g] chinolin]		> 50
CN1CCc2cccc3c2C1Cc1sc(N)nc1-3 (racemic) [Vergleich, 6-Methyl-9-amino-5,6,6a,7-tetrahydro-4H-benzo[de]thiazolo[4,5-g] chinolin, reference compound]	34	
CN1CCc2cccc3c2C1Cc1sc(NCc2ccccc2)nc1-3 (stereo not drawn) [d, 6-Methyl-9-benzylamino-5,6,6a,7-tetrahydro-4H-benzo[de]thiazolo[4,5-g]chinolin]		> 50
